Patent US8343957B2, “Therapeutic pyrazoloquinoline urea derivatives” (Dart Neuroscience (Cayman) Ltd., priority 2007, dated 2013)

Molecular target: GABAA central benzodiazepine receptor
Test: Benzodiazepine Binding Assay
Details: read-out: BZ binding Assay IC50; 1 nM (3H)-flunitrazepam, rat whole brain (except cerebellum) membranes, 60 minutes at 25° C.

Cc1ccc2c(c1)c1nn(-c3ccccc3)c(=O)c-1cn2C(=O)N1CCCN(C)CC1 [Compd 29, 5-(4-Methylperhydro[1,4]-diazepine-1-carbonyl)-8-methyl-2-phenyl-2,5-dihydro-pyrazolo-(4,3-c)quinolin-3-one]
IC50: < 1000 nM

Cc1c2c(=O)n(-c3ccccc3)nc-2c2cc(F)c(F)cc2n1C(=O)N1CCN(C)CC1 [Compd 47, 5-(4-Methylpiperazine-1-carbonyl)-7,8-difluoro-4-methyl-2-phenyl-2,5-dihydro-pyrazolo-(4,3-c)quinolin-3-one]
IC50: > 1000 nM

CC1CN(C(=O)n2cc3c(=O)n(-c4ccccc4)nc-3c3ccccc32)CC(C)N1 (centres unmarked) [Compd 11, 5-(3,5-Dimethylpiperazine-1-carbonyl)-2-phenyl-2,5-dihydro-pyrazolo-(4,3-c)quinolin-3-one]
IC50: < 1000 nM

C=CCN1CCN(C(=O)n2cc3c(=O)n(-c4ccccc4)nc-3c3ccccc32)CC1 [Compd 14, 5-(4-Allylpiperazine-1-carbonyl)-2-phenyl-2,5-dihydro-pyrazolo-(4,3-c) quinolin-3-one]
IC50: < 1000 nM

CN1CCN(C(=O)n2cc3c(=O)n(-c4ccccc4F)nc-3c3ccccc32)CC1 [Compd 16, 5-(4-Methylpiperazine-1-carbonyl)-2-(2′-fluorophenyl)-2,5-dihydro-pyrazolo-(4,3-c)quinolin-3-one]
IC50: < 1000 nM

COc1ccc(-n2nc3c4cc(F)c(F)cc4n(C(=O)N4CCN(C(C)C)CC4)cc-3c2=O)cc1 [Compd 38, 5-(4-Isopropylpiperazine-1-carbonyl)-7,8-difluoro-2-(4′-methoxyphenyl)-2,5-dihydro-pyrazolo-(4,3-c)quinolin-3-one]
IC50: < 1000 nM

Cc1cc2c(cc1F)c1nn(-c3ccccc3)c(=O)c-1cn2C(=O)N1CCN(C)CC1 [Compd 41, 8-Fluoro-7-methyl-5-(4-methylpiperazine-1-carbonyl)-2-phenyl-2,5-dihydro-pyrazolo-(4,3-c)quinolin-3-one]
IC50: < 1000 nM

CC(C)N1CCN(C(=O)n2cc3c(=O)n(-c4ccc(Cl)cc4)nc-3c3cc(F)ccc32)CC1 [Compd 35, 5-(4-Isopropylpiperazine-1-carbonyl)-8-fluoro-2-(4-chlorophenyl)-2,5-dihydro-pyrazolo-(4,3-c)quinolin-3-one]
IC50: < 1000 nM

O=C(N1CCC(O)CC1)n1cc2c(=O)n(-c3ccsc3)nc-2c2cc(F)c(F)cc21 [Compd 50, 5-(4-Hydroxypiperidine-1-carbonyl)-2-(thiophen-3-yl)-7,8-difluoro-2,5-dihydro-pyrazolo[4,3-c]quinolin-3-one]
IC50: < 1000 nM

CN1CCN(C(=O)n2cc3c(=O)n(-c4ccccc4)nc-3c3ccccc32)CC1 [Compd 36, 5-(4-Methylpiperazine-1-carbonyl)-2-phenyl-2,5-dihydro-pyrazolo-(4,3-c)quinolin-3-one]
IC50: < 1000 nM

CN(C)C(=O)n1cc2c(=O)n(-c3ccccc3)nc-2c2ccccc21 [Compd 32, 5-(Dimethylaminocarbonyl)-2-phenyl-2,5-dihydro-pyrazolo-(4,3-c)quinolin-3-one]
IC50: < 1000 nM

Cc1ccc2c(c1)c1nn(-c3ccccc3)c(=O)c-1cn2C(=O)N1CCN(C(C)C)CC1 [Compd 25, 5-(4-Isopropylpiperazine-1-carbonyl)-8-methyl-2-phenyl-2,5-dihydro-pyrazolo-(4,3-c)quinolin-3-one]
IC50: < 1000 nM

CC1CCN(C(=O)n2cc3c(=O)n(-c4ccccc4)nc-3c3ccccc32)CC1 [Compd 5, 5-(4-Methylpiperidine-1-carbonyl)-2-phenyl-2,5-dihydro-pyrazolo-(4,3-c)quinolin-3-one]
IC50: < 1000 nM

CN1CCCN(C(=O)n2cc3c(=O)n(-c4ccccc4)nc-3c3cc(F)c(F)cc32)CC1 [Compd 52, 5-(4-Methylperhydro[1,4]-diazepine-1-carbonyl)-7,8-difluoro-2-phenyl-2,5-dihydro-pyrazolo[4,3-c]quinolin-3-one]
IC50: < 1000 nM

CC1CN(C(=O)n2cc3c(=O)n(-c4ccccc4)nc-3c3ccccc32)CC(C)O1 (centres unmarked) [Compd 6]
IC50: < 1000 nM

O=C(N1CCC(O)CC1)n1cc2c(=O)n(-c3ccccc3)nc-2c2ccccc21 [Compd 30, 5-(4-Hydroxypiperidine-1-carbonyl)-2-phenyl-2,5-dihydro-pyrazolo-(4,3-c)quinolin-3-one]
IC50: > 1000 nM

Cc1ccc2c(c1)c1nn(-c3ccccc3)c(=O)c-1cn2C(=O)N1CCC(O)CC1 [Compd 27, 5-(4-Hydroxypiperidine-1-carbonyl)-8-methyl-2-phenyl-2,5-dihydro-pyrazolo-(4,3-c)quinolin-3-one]
IC50: < 1000 nM

CN1CCN(C(=O)n2cc3c(=O)n(-c4ccccc4)nc-3c3cc(F)ccc32)CC1 [Compd 20, 5-(4-Methylpiperazine-1-carbonyl)-8-fluoro-2-phenyl-2,5-dihydro-pyrazolo-(4,3-c)quinolin-3-one]
IC50: < 1000 nM

O=C(N1CCOCC1)n1cc2c(=O)n(-c3ccccc3)nc-2c2ccccc21 [Compd 13, 5-(Morpholine-4-carbonyl)-2-phenyl-2,5-dihydro-pyrazolo-(4,3-c)quinolin-3-one]
IC50: > 1000 nM

Cc1c2c(=O)n(-c3ccccc3)nc-2c2ccccc2n1C(=O)N1CCN(C(C)C)CC1 [Compd 43, 5-(4-Isopropylpiperazine-1-carbonyl)-4-methyl-2-phenyl-2,5-dihydro-pyrazolo[4,3-c]quinolin-3-one]
IC50: < 1000 nM

CCCN1CCN(C(=O)n2cc3c(=O)n(-c4ccccc4)nc-3c3ccccc32)CC1 [Compd 40, 5-(4-Propylpiperazine-1-carbonyl)-2-phenyl-2,5-dihydro-pyrazolo-(4,3-c) quinolin-3-one]
IC50: < 1000 nM

CC1CCCN1C(=O)n1cc2c(=O)n(-c3ccccc3)nc-2c2ccccc21 (centres unmarked) [Compd 9, 5-(2-Methylpyrrolidine-1-carbonyl)-2-phenyl-2,5-dihydro-pyrazolo-(4,3-c) quinolin-3-one]
IC50: < 1000 nM

COCCN1CCN(C(=O)n2cc3c(=O)n(-c4ccccc4)nc-3c3ccccc32)CC1 [Compd 7, 5-(4-(2-Methoxyethyl)-piperazine-1-carbonyl)-2-phenyl-2,5-dihydro-pyrazolo-(4,3-c)quinolin-3-one]
IC50: < 1000 nM

CC(C)N1CCN(C(=O)n2cc3c(=O)n(-c4ccccc4)nc-3c3cc(C(F)(F)F)ccc32)CC1 [Compd 46, 5-(4-Isopropyl-piperazine-1-carbonyl)-2-phenyl-8-trifluoromethyl-2,5-dihydro-pyrazolo[4,3-c]quinolin-3-one]
IC50: < 1 nM

O=C(N1CCN(c2ccccc2)CC1)n1cc2c(=O)n(-c3ccccc3)nc-2c2cc(F)ccc21 [Compd 37, 5-(4-Phenylpiperazine-1-carbonyl)-8-fluoro-2-phenyl-2,5-dihydro-pyrazolo-(4,3-c)quinolin-3-one]
IC50: < 1000 nM

Cc1c2c(=O)n(-c3ccccc3)nc-2c2ccccc2n1C(=O)N1CCN(C)CC1 [Compd 44, 4-Methyl-5-(4-methylpiperazine-1-carbonyl)-2-phenyl-2,5-dihydro-pyrazolo[4,3-c]quinolin-3-one]
IC50: < 1000 nM

CN1CCN(C(=O)n2cc3c(=O)n(-c4ccccc4)nc-3c3cc(F)c(F)cc32)CC1 [Compd 22, 5-(4-Methylpiperazine-1-carbonyl)-7,8-difluoro-2-phenyl-2,5-dihydro-pyrazolo-(4,3-c)quinolin-3-one]
IC50: < 1000 nM

COc1ccc2c(c1)c1nn(-c3ccccc3)c(=O)c-1cn2C(=O)N1CCN(C(C)C)CC1 [Compd 23, 5-(4-Isopropylpiperazine-1-carbonyl)-8-methoxy-2-phenyl-2,5-dihydro-pyrazolo-(4,3-c)quinolin-3-one]
IC50: < 1000 nM

Cc1ccc2c(c1)c1nn(-c3ccccc3)c(=O)c-1cn2C(=O)N1CCC(F)CC1 [Compd 28, 5-(4-Fluoropiperidine-1-carbonyl)-8-methyl-2-phenyl-2,5-dihydro-pyrazolo-(4,3-c)quinolin-3-one]
IC50: < 1000 nM

CN(C)C1CCN(C(=O)n2cc3c(=O)n(-c4ccccc4)nc-3c3ccccc32)CC1 [Compd 33, 5-(4-N,N-Dimethylaminopiperidine-1-carbonyl)-2-phenyl-2,5-dihydro-pyrazolo-(4,3-c)quinolin-3-one]
IC50: < 1000 nM

CC(C)N1CCN(C(=O)n2cc3c(=O)n(-c4ccccc4)nc-3c3cc(F)c(F)cc32)CC1 [Compd 21, 5-(4-Isopropylpiperazine-1-carbonyl)-7,8-difluoro-2-phenyl-2,5-dihydro-pyrazolo-(4,3-c)quinolin-3-one]
IC50: < 1000 nM

O=C(N1CCC(O)CC1)n1cc2c(=O)n(-c3ccccc3)nc-2c2cc(F)c(F)cc21 [Compd 51, 5-(4-Hydroxypiperidine-1-carbonyl)-2-phenyl-7,8-difluoro-2,5-dihydro-pyrazolo[4,3-c]quinolin-3-one]
IC50: > 1000 nM

O=C(N1CCN(c2ccccc2)CC1)n1cc2c(=O)n(-c3ccccc3)nc-2c2ccccc21 [Compd 10, 5-(4-Phenylpiperazine-1-carbonyl)-2-phenyl-2,5-dihydro-pyrazolo-(4,3-c) quinolin-3-one]
IC50: < 1000 nM

COc1ccc(-n2nc3c4ccccc4n(C(=O)N4CCN(C)CC4)cc-3c2=O)cc1 [Compd 18, 5-(4-Methylpiperazine-1-carbonyl)-2-(4′-methoxyphenyl)-2,5-dihydro-pyrazolo-(4,3-c)quinolin-3-one]
IC50: < 1000 nM

5-(4-Isopropylpiperazine-1-carbonyl)-7,8-difluoro-4-methyl-2-phenyl-2,5-dihydro-pyrazolo-(4,3-c)quinolin-3-one [Compd 48]
IC50: > 1000 nM

COc1ccc(-n2nc3c4cc(F)ccc4n(C(=O)N4CCN(C(C)C)CC4)cc-3c2=O)cc1 [Compd 39, 5-(4-Isopropylpiperazine-1-carbonyl)-8-fluoro-2-(4′-methoxyphenyl)-2,5-dihydro-pyrazolo-(4,3-c)quinolin-3-one]
IC50: < 1000 nM

COc1ccc(-n2nc3c4ccccc4n(C(=O)N4CCN(C(C)C)CC4)cc-3c2=O)cc1 [Compd 17, 5-(4-Isopropylpiperazine-1-carbonyl)-2-(4′-methoxyphenyl)-2,5-dihydro-pyrazolo-(4,3-c)quinolin-3-one]
IC50: < 1000 nM

CC(C)N1CCN(C(=O)n2cc3c(=O)n(-c4ccccc4)nc-3c3cc(N4CCOCC4)ccc32)CC1 [Compd 34, 5-(4-Isopropylpiperazine-1-carbonyl)-8-morpholino-2-phenyl-2,5-dihydro-pyrazolo-(4,3-c)quinolin-3-one]
IC50: < 1000 nM
